Our source for the IC50 values is patent US20070197512A1, “Carboxylic Acid Compounds and Use Thereof” (Japan Tobacco Inc., priority 2006, published 2007).

For assay [1], the target named is T1, human URAT1 (Homo sapiens, UniProt Q96S37).
T1 construct: Human URAT1 full length cDNA was subcloned to expression vector pcDNA3.1; expressed in transfected cells; host or cells: HEK293 cells (pcDNA3.1, geneticin-selected)
T1 sequence (Q96S37 1-553): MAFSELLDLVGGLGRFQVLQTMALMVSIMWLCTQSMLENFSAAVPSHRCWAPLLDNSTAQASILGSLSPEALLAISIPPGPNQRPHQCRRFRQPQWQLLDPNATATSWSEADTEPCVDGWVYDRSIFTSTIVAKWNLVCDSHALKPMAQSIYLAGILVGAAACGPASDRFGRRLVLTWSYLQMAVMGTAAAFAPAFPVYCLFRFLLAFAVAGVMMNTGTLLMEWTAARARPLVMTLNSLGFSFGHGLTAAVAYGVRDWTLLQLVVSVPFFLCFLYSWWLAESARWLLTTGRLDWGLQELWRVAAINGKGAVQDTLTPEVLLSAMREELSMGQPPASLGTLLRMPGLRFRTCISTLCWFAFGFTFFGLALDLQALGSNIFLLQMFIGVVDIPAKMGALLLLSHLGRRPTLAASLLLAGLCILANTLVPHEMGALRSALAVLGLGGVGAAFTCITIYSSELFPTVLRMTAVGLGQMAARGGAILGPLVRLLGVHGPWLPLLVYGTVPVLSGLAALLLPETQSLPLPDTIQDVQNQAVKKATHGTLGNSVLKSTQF
Nature of the assay: Uric acid transport inhibitory test using human URAT1-expressing cells. The following applies: human URAT1-expressing HEK293 cells, 14C-uric acid 50 μM, uptake 5 min, room temperature; read-out: hURAT1 IC50. It counts as cell-based. The procedure, abridged: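 HEK293 cells stably transfected with full-length human URAT1; mock-transfected HEK293 served as background. Uptake of 14C-uric acid (50 μM final) over 5 min at room temperature in Na-gluconate-substituted HBSS with compound, read by scintillation. IC50 derived from URAT1-specific transport (URAT1 minus mock, DMSO = 100%).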

The target of assay [2] is T2, CYP2C9 (Homo sapiens, UniProt P11712).
T2 construct: Human liver microsome (20 mg protein/mL, 5 μL, Xenotech LLC, purchased from Lenexa Kans.); tissue Xenotech LLC; host or cells: human liver microsomes
T2 sequence (P11712 whole entry): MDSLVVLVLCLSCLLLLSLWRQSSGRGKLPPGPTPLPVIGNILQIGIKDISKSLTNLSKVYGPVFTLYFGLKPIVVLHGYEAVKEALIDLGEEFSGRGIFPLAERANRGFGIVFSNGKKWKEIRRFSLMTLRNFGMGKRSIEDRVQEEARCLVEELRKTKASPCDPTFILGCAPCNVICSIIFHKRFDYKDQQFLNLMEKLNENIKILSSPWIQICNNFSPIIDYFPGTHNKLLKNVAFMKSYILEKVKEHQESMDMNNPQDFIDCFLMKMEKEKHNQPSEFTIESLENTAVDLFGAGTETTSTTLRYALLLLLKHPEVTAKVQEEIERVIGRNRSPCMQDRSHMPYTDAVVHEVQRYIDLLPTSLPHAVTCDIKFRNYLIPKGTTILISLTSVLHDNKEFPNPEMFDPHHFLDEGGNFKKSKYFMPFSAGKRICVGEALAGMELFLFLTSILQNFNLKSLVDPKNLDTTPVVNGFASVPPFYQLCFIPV
Nature of the assay: CYP inhibitory test using human liver microsome. Conditions: model substrate diclofenac, 37° C., 10 min, read-out: CYP2C9 inhibition, IC50. Type of assay: in vitro ADME. The protocol:
Experimental Example 2 CYP Inhibitory Test Using Human Liver Microsome
Human liver microsome (20 mg protein/mL, 5 μL, Xenotech LLC, purchased from Lenexa Kans.) was suspended in 100 mM potassium phosphate buffer (70 μL, pH 7.4), mixed with a solution (0.5 μL) of the Example compound dissolved in DMSO and preincubated at 37° C. for 5 min. NADPH producing system coenzyme solution (β-nicotinamide adenine dinucleotide phosphate: 5.2 mM, D-glucose-6-phosphate: 13.2 mM, magnesium chloride: 13.2 mM, glucose-6-phosphate dehydrogenase: 1.8 U/mL) 25 μL, and a model substrate (CYP3A4: midazolam 1 mM, CYP2D6: bufuralol 1 mM, CYP2C9: diclofenac 2 mM) 0.5 μL dissolved in DMSO were added to start the reaction. After incubation at 37° C. for 10 min., acetonitrile (200 μL) containing an internal standard substance (propranolol 1 μM) was added and the mixture was centrifuged (room temperature, 3000 rpm, 20 min). The amount of the metabolite produced from each model substrate in the supernatant was measured by high performance liquid chromatography/mass spectrometry (LC/MS/MS) and each CYP enzyme activity was determined. The concentration showing 50% inhibition (IC50) was calculated relative to the enzyme activity without addition of Example compound (DMSO 0.5 μL added) as 100%.
As a comparative example, the CYP enzyme activity of the compound described in JP-A-3-135917 was examined by determining the IC50 value in the same manner as above.

pIC50: −log10 of the molar value. Some results are limits rather than exact numbers.

As to `Cc1cc(Cl)c2c(c1)N(CCC(=O)O)C(=O)[C@H](C(C)C)O2` [Example 109, 3-((S)-8-chloro-2-isopropyl-6-methyl-3-oxo-2,3-dihydrobenzo[1,4]oxazin-4-yl)propionic acid], the results for the negative-log IC50 (pIC50) in assay [1] and in assay [2] were 5.52 to 6.52 and less than 4.30, respectively.
Take `Cc1cc(C)c2c(c1)N(CCC(=O)O)C(=O)[C@@H](C(C)C)O2` [Example 74, 3-((R)-2-isopropyl-6,8-dimethyl-3-oxo-2,3-dihydrobenzo[1,4]oxazin-4-yl)propionic acid]: the values for the pIC50 in assay [1] and in assay [2] were more than 6.52 and less than 4.30, respectively.
In the same order, the values of `CC(C)c1cccc2c1OC(C(C)C)C(=O)N2CC(=O)O` (stereo not drawn) [Example 9, (2,8-diisopropyl-3-oxo-2,3-dihydrobenzo[1,4]oxazin-4-yl)acetic acid] are not above 5.52 and 4.52.
On the same counts, the results for `CC(C)c1cccc2c1OC(c1ccccc1)C(=O)N2CCC(=O)O` (stereo not drawn) [Example 38, 3-(8-isopropyl-3-oxo-2-phenyl-2,3-dihydrobenzo[1,4]oxazin-4-yl)propionic acid] are more than 6.52 and less than 4.30.
In the same order, the values of `Cc1cc(Cl)cc2c1OC(C(C)C)CN2C(=O)/C=C/C(=O)O` (stereo not drawn) [Example 83, (E)-4-(6-chloro-2-isopropyl-8-methyl-2,3-dihydrobenzo[1,4]oxazin-4-yl)-4-oxo-2-butenoic acid] are 5.52 to 6.52 and less than 4.30.
Take `Cc1cc(C)c2c(c1)N(CCC(=O)O)C(=O)[C@H](C(C)C)O2` [Example 73, 3-((S)-2-isopropyl-6,8-dimethyl-3-oxo-2,3-dihydrobenzo[1,4]oxazin-4-yl)propionic acid]: the pIC50 was more than 6.52 in assay [1] and less than 4.30 in assay [2].
In the same order, the values of `CCCC1Oc2c(C)cc(C)cc2N(CCC(=O)O)C1=O` (stereo not drawn) [Example 102, 3-(6,8-dimethyl-3-oxo-2-propyl-2,3-dihydrobenzo[1,4]oxazin-4-yl)propionic acid] are more than 6.52 and less than 4.30.
On the same counts, the results for `CC[C@H](C)[C@H]1Oc2c(C)cc(C)cc2N(CCC(=O)O)C1=O` [Example 105, 3-[(R)-2-((S)-sec-butyl)-6,8-dimethyl-3-oxo-2,3-dihydrobenzo[1,4]oxazin-4-yl]propionic acid] are more than 6.52 and less than 4.30.
On the same counts, the results for `Cc1ccc2c(c1)N(C(=O)/C=C/C(=O)O)CC(C(C)C)O2` (stereo not drawn) [Example 64, (E)-4-(2-isopropyl-6-methyl-2,3-dihydrobenzo[1,4]oxazin-4-yl)-4-oxo-2-butenoic acid] are 5.52 to 6.52 and less than 4.30.
`CC(C)c1cccc2c1OC(C(C)C)C(=S)N2CCC(=O)O` (stereo not drawn) [Example 16, 3-(2,8-diisopropyl-3-thioxo-2,3-dihydrobenzo[1,4]oxazin-4-yl)propionic acid]: the pIC50 in assay [1] is 5.52 to 6.52; in assay [2] it was less than 4.30.
In the same order, the values of `Cc1cc(Cl)cc2c1O[C@H](C(C)C)C(=O)N2CCC(=O)O` [Example 107, 3-((R)-6-chloro-2-isopropyl-8-methyl-3-oxo-2,3-dihydrobenzo[1,4]oxazin-4-yl)propionic acid] are more than 6.52 and less than 4.30.
In the same order, the values of `Cc1cccc2c1OC(C(C)C)CN2C(=O)/C=C/C(=O)O` (stereo not drawn) [Example 54, (E)-4-(2-isopropyl-8-methyl-2,3-dihydrobenzo[1,4]oxazin-4-yl)-4-oxo-2-butenoic acid] are not above 5.52 and less than 4.30.
Take `Cc1cc(Cl)c2c(c1)N(CCC(=O)O)C(=O)[C@@H](C(C)C)O2` [Example 106, 3-((R)-8-chloro-2-isopropyl-6-methyl-3-oxo-2,3-dihydrobenzo[1,4]oxazin-4-yl)propionic acid]: the pIC50 in assay [1] is more than 6.52; in assay [2], less than 4.30.
In the same order, the values of `CC(C)c1cccc2c1OC(C(C)C)C(=O)N2CCC(=O)O` (stereo not drawn) [Example 14, 3-(2,8-diisopropyl-3-oxo-2,3-dihydrobenzo[1,4]oxazin-4-yl)propionic acid] are 5.52 to 6.52 and less than 4.30.
On the same counts, the results for `CC(C)C1CN(C(=O)/C=C/C(=O)O)c2cc(Cl)ccc2O1` (stereo not drawn) [Example 69, (E)-4-(6-chloro-2-isopropyl-2,3-dihydrobenzo[1,4]oxazin-4-yl)-4-oxo-2-butenoic acid] are not above 5.52 and less than 4.30.
In the case of `Cc1cc(Cl)cc2c1OC(c1ccccc1)CN2C(=O)/C=C/C(=O)O` (stereo not drawn) [Example 84, (E)-4-(6-chloro-8-methyl-2-phenyl-2,3-dihydrobenzo[1,4]oxazin-4-yl)-4-oxo-2-butenoic acid], the figures for the negative-log IC50 (pIC50) in assay [1] and in assay [2] were 5.52 to 6.52 and less than 4.30, respectively.
For `Cc1cccc2c1OC(c1ccccc1)CN2C(=O)/C=C/C(=O)O` (stereo not drawn) [Example 55, (E)-4-(8-methyl-2-phenyl-2,3-dihydrobenzo[1,4]oxazin-4-yl)-4-oxo-2-butenoic acid], the values for the pIC50 in assay [1] and in assay [2] were not above 5.52 and less than 4.30, respectively.
Regarding `Cc1ccc2c(c1)N(C(=O)/C=C/C(=O)O)CC(c1ccccc1)O2` (stereo not drawn) [Example 65, (E)-4-(6-methyl-2-phenyl-2,3-dihydrobenzo[1,4]oxazin-4-yl)-4-oxo-2-butenoic acid], the figures for the pIC50 in assay [1] and in assay [2] were not above 5.52 and less than 4.30, respectively.
In the same order, the values of `CC(C)[C@@H]1Oc2c(Cl)cc(Cl)cc2N(CCC(=O)O)C1=O` [Example 111, 3-((S)-6,8-dichloro-2-isopropyl-3-oxo-2,3-dihydrobenzo[1,4]oxazin-4-yl)propionic acid] are 5.52 to 6.52 and less than 4.30.
On the same counts, the results for `CC(C)c1cccc2c1OC(C(C)C)CN2C(=O)/C=C/C(=O)O` (stereo not drawn) [Example 36, (E)-4-(2,8-diisopropyl-2,3-dihydrobenzo[1,4]oxazin-4-yl)-4-oxo-2-butenoic acid] are 5.52 to 6.52 and less than 4.30.
Consider `Cc1cc(C)c2c(c1)N(CCC(=O)O)C(=O)[C@@H](CC(C)C)O2` [Example 91, 3-((R)-2-isobutyl-6,8-dimethyl-3-oxo-2,3-dihydrobenzo[1,4]oxazin-4-yl)propionic acid], for which the pIC50 was more than 6.52 in assay [1] and less than 4.30 in assay [2].
